The target of one test is T1, human V1a receptor (Homo sapiens, UniProt P37288).
T1 construct: expressed in transfected cells; host or cells: CHO K1 (ATCC), also stably transfected with a modified aequorin
As to the kind of experiment: Cellular in vitro assay for determining vasopressin receptor activity, V1a receptor cell line (CHO, aequorin luminescence). To be noted: for IC50: CHO cell line transfected with human V1a receptor, [Arg]-vasopressin at EC50 concentration, read-out: IC50 hV1a; for ratio IC50 hV2/hV1a: selectivity ratio IC50 hV2 / IC50 hV1a. The class given is cell-based. The procedure, abridged: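 CHO K1/aequorin cells, coelenterazine 5 μg/ml o/n; cpd 10 min; [Arg]-vasopressin at EC50; luminescence read immediately; IC50.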

The next test deals with T2, human V2 receptor (Homo sapiens, UniProt P30518).
T2 construct: expressed in transfected cells; host or cells: CHO K1 (ATCC) expressing firefly luciferase under a CRE-responsive promoter
T2 sequence (P30518 whole entry): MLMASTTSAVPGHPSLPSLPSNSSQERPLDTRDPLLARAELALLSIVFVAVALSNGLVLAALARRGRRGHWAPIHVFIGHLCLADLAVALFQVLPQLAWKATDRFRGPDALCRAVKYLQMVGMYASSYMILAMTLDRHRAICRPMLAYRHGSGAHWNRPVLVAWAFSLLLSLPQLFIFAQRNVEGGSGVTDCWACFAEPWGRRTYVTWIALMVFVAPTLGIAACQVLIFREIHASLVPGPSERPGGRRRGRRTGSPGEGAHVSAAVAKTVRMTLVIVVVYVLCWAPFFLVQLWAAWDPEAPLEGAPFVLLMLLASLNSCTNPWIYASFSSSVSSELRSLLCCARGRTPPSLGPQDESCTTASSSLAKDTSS
As to the kind of experiment: Cellular in vitro assay for determining vasopressin receptor activity, V2 receptor cell line (CHO, CRE-luciferase). The class given is cell-based. Conditions: CHO cell line transfected with human V2 receptor; [Arg8]-vasopressin at EC50 concentration, 3 hours; read-out: IC50 hV2.

T1 sequence (P37288 whole entry): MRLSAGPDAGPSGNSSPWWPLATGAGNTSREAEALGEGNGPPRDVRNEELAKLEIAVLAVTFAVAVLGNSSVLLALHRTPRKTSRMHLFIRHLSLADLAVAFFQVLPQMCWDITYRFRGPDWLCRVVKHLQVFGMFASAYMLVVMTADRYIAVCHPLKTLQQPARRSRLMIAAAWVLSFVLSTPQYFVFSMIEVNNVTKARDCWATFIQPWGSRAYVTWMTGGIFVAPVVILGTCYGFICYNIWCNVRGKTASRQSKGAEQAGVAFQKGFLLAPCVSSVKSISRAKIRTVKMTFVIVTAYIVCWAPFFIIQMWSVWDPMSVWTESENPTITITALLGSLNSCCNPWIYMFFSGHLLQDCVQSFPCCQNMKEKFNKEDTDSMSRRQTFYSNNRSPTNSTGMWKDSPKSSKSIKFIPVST

For `CN(CC1CC1)C(=O)c1ccccc1-n1cnc(Cn2nc(-c3ccc(Cl)cc3)n(C[C@H](O)C(F)(F)F)c2=O)n1` [Example 289, 2-[3-({3-(4-Chlorophenyl)-5-oxo-4-[(2S)-3,3,3-trifluoro-2-hydroxypropyl]-4,5-dihydro-1H-1,2,4-triazol-1-yl}methyl)-1H-1,2,4-triazol-1-yl]-N-(cyclopropylmethyl)-N-methylbenzamide], the IC50 was determined as 0.83 nM at human V1a receptor and 445 nM on human V2 receptor. At human V1a receptor, the “ratio IC50 hV2/hV1a” value came out at 536.1.

`O=C(c1ccccc1-n1cnc(Cn2nc(-c3ccc(Cl)cc3)n(C[C@H](O)C(F)(F)F)c2=O)n1)N1CC(O)C1` [Example 290, 5-(4-Chlorophenyl)-2-[(1-{2-[(3-hydroxyazetidin-1-yl)carbonyl]phenyl}-1H-1,2,4-triazol-3-yl)methyl]-4-[(2S)-3,3,3-trifluoro-2-hydroxypropyl]-2,4-dihydro-3H-1,2,4-triazol-3-one]: at human V1a receptor, the IC50 stood at 9.1 nM and the “ratio IC50 hV2/hV1a” value is on record as 92.9. The IC50 at human V2 receptor was 845 nM.

With `O=C(c1ccccc1-n1cnc(Cn2nc(-c3ccc(Cl)cc3)n(C[C@H](O)C(F)(F)F)c2=O)n1)N1CC[C@@H](O)C1` [Example 291, 5-(4-Chlorophenyl)-2-{[1-(2-{[(3R)-3-hydroxypyrrolidin-1-yl]carbonyl}phenyl)-1H-1,2,4-triazol-3-yl]methyl}-4-[(2S)-3,3,3-trifluoro-2-hydroxypropyl]-2,4-dihydro-3H-1,2,4-triazol-3-one], at human V1a receptor, the half-inhibitory concentration (IC50) was 6.6 nM and the “ratio IC50 hV2/hV1a” value was 174.2. In addition, the IC50 on human V2 receptor is 1150 nM.

With `CC1C=CC(C)N1C(=O)c1ccccc1-n1cnc(Cn2nc(-c3ccc(Cl)cc3)n(C[C@H](O)C(F)(F)F)c2=O)n1` (stereo partly drawn) [Example 293, 5-(4-Chlorophenyl)-2-[(1-{2-[(2,5-dimethyl-2,5-dihydro-1H-pyrrol-1-yl)carbonyl]phenyl}-1H-1,2,4-triazol-3-yl)methyl]-4-[(2S)-3,3,3-trifluoro-2-hydroxypropyl]-2,4-dihydro-3H-1,2,4-triazol-3-one], at human V1a receptor, the half-maximal inhibitory concentration (IC50) stood at 4.7 nM and the “ratio IC50 hV2/hV1a” value was found to be 178.7. Also, the IC50 on human V2 receptor stood at 840 nM.

With `C=CCN(C)C(=O)c1ccccc1-n1cnc(Cn2nc(-c3ccc(Cl)cc3)n(C[C@H](O)C(F)(F)F)c2=O)n1` [Example 294, 2-[3-({3-(4-Chlorophenyl)-5-oxo-4-[(2S)-3,3,3-trifluoro-2-hydroxypropyl]-4,5-dihydro-1H-1,2,4-triazol-1-yl}methyl)-1H-1,2,4-triazol-1-yl]-N-methyl-N-(prop-2-en-1-yl)benzamide], at human V1a receptor, the IC50 turned out to be 2.1 nM and the “ratio IC50 hV2/hV1a” value turned out to be 735.7. Further, the IC50 at human V2 receptor came out at 1540 nM.

For `CCN(C)C(=O)c1ccccc1-n1cnc(Cn2nc(-c3ccc(Cl)cc3)n(C[C@H](O)C(F)(F)F)c2=O)n1` [Example 295, 2-[3-({3-(4-Chlorophenyl)-5-oxo-4-[(2S)-3,3,3-trifluoro-2-hydroxypropyl]-4,5-dihydro-1H-1,2,4-triazol-1-yl}methyl)-1H-1,2,4-triazol-1-yl]-N-ethyl-N-methylbenzamide], at human V1a receptor, the IC50 was 2.5 nM and the “ratio IC50 hV2/hV1a” value stood at 30.8. For the same compound, at human V2 receptor, the IC50 amounted to 77 nM.

As for `Cc1cccnc1NC(=O)c1ccccc1-n1cnc(Cn2nc(-c3ccc(Cl)cc3)n(C[C@H](O)C(F)(F)F)c2=O)n1` [Example 296, 2-[3-({3-(4-Chlorophenyl)-5-oxo-4-[(2S)-3,3,3-trifluoro-2-hydroxypropyl]-4,5-dihydro-1H-1,2,4-triazol-1-yl}methyl)-1H-1,2,4-triazol-1-yl]-N-(3-methylpyridin-2-yl)benzamide], on human V1a receptor, the IC50 worked out at 3.95 nM and the “ratio IC50 hV2/hV1a” value stood at 126.6. In addition, the IC50 at human V2 receptor turned out to be 500 nM.

`O=C(NCc1ccccc1)c1ccccc1-n1cnc(Cn2nc(-c3ccc(Cl)cc3)n(C[C@H](O)C(F)(F)F)c2=O)n1` [Example 299, N-Benzyl-2-[3-({3-(4-chlorophenyl)-5-oxo-4-[(2S)-3,3,3-trifluoro-2-hydroxypropyl]-4,5-dihydro-1H-1,2,4-triazol-1-yl}methyl)-1H-1,2,4-triazol-1-yl]benzamide]: on human V1a receptor, the IC50 was 4.4 nM and the “ratio IC50 hV2/hV1a” value came to 60.2. Also, the IC50 on human V2 receptor amounted to 265 nM.

`O=C(Nc1ccncc1)c1ccccc1-n1cnc(Cn2nc(-c3ccc(Cl)cc3)n(C[C@H](O)C(F)(F)F)c2=O)n1` [Example 300, 2-[3-({3-(4-Chlorophenyl)-5-oxo-4-[(2S)-3,3,3-trifluoro-2-hydroxypropyl]-4,5-dihydro-1H-1,2,4-triazol-1-yl}methyl)-1H-1,2,4-triazol-1-yl]-N-(pyridin-4-yl)benzamide]: the IC50 on human V1a receptor is 1.02 nM; at human V2 receptor, 670 nM. The “ratio IC50 hV2/hV1a” value on human V1a receptor was found to be 656.9.

For the compound `O=C(NCc1ccccn1)c1ccccc1-n1cnc(Cn2nc(-c3ccc(Cl)cc3)n(C[C@H](O)C(F)(F)F)c2=O)n1` [Example 301, 2-[3-({3-(4-Chlorophenyl)-5-oxo-4-[(2S)-3,3,3-trifluoro-2-hydroxypropyl]-4,5-dihydro-1H-1,2,4-triazol-1-yl}methyl)-1H-1,2,4-triazol-1-yl]-N-(pyridin-2-ylmethyl)benzamide], on human V1a receptor, the IC50 stood at 8.75 nM and the “ratio IC50 hV2/hV1a” value is 69.7. Further, at human V2 receptor, the IC50 stood at 610 nM.

In the case of `O=C(NCc1ccncc1)c1ccccc1-n1cnc(Cn2nc(-c3ccc(Cl)cc3)n(C[C@H](O)C(F)(F)F)c2=O)n1` [Example 302, 2-[3-({3-(4-Chlorophenyl)-5-oxo-4-[(2S)-3,3,3-trifluoro-2-hydroxypropyl]-4,5-dihydro-1H-1,2,4-triazol-1-yl}methyl)-1H-1,2,4-triazol-1-yl]-N-(pyridin-4-ylmethyl)benzamide], the IC50 at human V1a receptor was 3.75 nM; on human V2 receptor, 3300 nM. Further, at human V1a receptor, the “ratio IC50 hV2/hV1a” value is given as 880.0.

On to `O=C(Nc1ccc(F)cc1F)c1ccccc1-n1cnc(Cn2nc(-c3ccc(Cl)cc3)n(C[C@H](O)C(F)(F)F)c2=O)n1` [Example 303, 2-[3-({3-(4-Chlorophenyl)-5-oxo-4-[(2S)-3,3,3-trifluoro-2-hydroxypropyl]-4,5-dihydro-1H-1,2,4-triazol-1-yl}methyl)-1H-1,2,4-triazol-1-yl]-N-(2,4-difluorophenyl)benzamide], for which, on human V1a receptor, the IC50 was 2.15 nM and the “ratio IC50 hV2/hV1a” value was determined as 234.9. Besides, the IC50 on human V2 receptor turned out to be 505 nM.

Take `O=C(Nc1cc(F)ccc1F)c1ccccc1-n1cnc(Cn2nc(-c3ccc(Cl)cc3)n(C[C@H](O)C(F)(F)F)c2=O)n1` [Example 304, 2-[3-({3-(4-Chlorophenyl)-5-oxo-4-[(2S)-3,3,3-trifluoro-2-hydroxypropyl]-4,5-dihydro-1H-1,2,4-triazol-1-yl}methyl)-1H-1,2,4-triazol-1-yl]-N-(2,5-difluorophenyl)benzamide]: on human V1a receptor, the IC50 was determined as 2.25 nM and the “ratio IC50 hV2/hV1a” value amounted to 29.1. In addition, the IC50 at human V2 receptor is 65.5 nM.

As to `O=C(Nc1ccccc1F)c1ccccc1-n1cnc(Cn2nc(-c3ccc(Cl)cc3)n(C[C@H](O)C(F)(F)F)c2=O)n1` [Example 305, 2-[3-({3-(4-Chlorophenyl)-5-oxo-4-[(2S)-3,3,3-trifluoro-2-hydroxypropyl]-4,5-dihydro-1H-1,2,4-triazol-1-yl}methyl)-1H-1,2,4-triazol-1-yl]-N-(2-fluorophenyl)benzamide], at human V1a receptor, the IC50 came to 0.97 nM and the “ratio IC50 hV2/hV1a” value is recorded as 55.7. For the same compound, the IC50 on human V2 receptor stood at 54 nM.

Usually IC50 stands for the midpoint of a concentration-inhibition curve.
